Results on 37 compounds are retold here after patent publication US20050043331A1, “Substituted 3-(2,5-disubstituted)pyridyl-4-aryl pyrroles for treating inflammatory diseases” (priority 2002, published 2005).

Experiment [1] concerns TNF-α. Nature of the experiment: In-vitro whole cell assay for TNF-α inhibition (LPS-stimulated PBMC, ELISA). In kind it is cell-based. The note with it: TNF-α by ELISA. The method, then:
Freshly obtained venous blood was anticoagulated with heparin, diluted with an equal volume of phosphate buffered saline (“PBS”) and placed in a sterile tube or other container. Aliquots (30 mL) of this mixture were transferred to centrifuge tubes, which were underlaid with Ficoll-Hypaque (15 mL). The prepared tubes were centrifuged at 400×g, without braking, for 30 min at room temperature. Approximately ½ to ⅔ of the platelet layer above the mononuclear cell band was removed with a pipette. The majority of the mononuclear cell layer was carefully removed using a pipette and these PBMC's were diluted with PBS and spun at 600×g for 15 min. The resulting PBMC's were washed with another portion of PBS and spun at 400×g for 10 min at room temperature. The recovered pellets were diluted in low endotoxin RPMI/1% FCS culture medium, and gave a cell concentration of 0.5-2.0×10^6 PMBC/ mL. A small volume of the suspension was removed for counting on a hemocytometer and the remaining preparation was centrifuged at 200×g for 15 min at room temperature. The recovered pelleted PMBC's were resuspended in RPMI/1% FCS to a concentration of 1.67×10^6/mL.
To run the assay, the PBMC suspension (180 μL) was transferred to duplicate wells of a 96-well flat-bottom microtiter plate and incubated for 1 h at 37° C. A solution of test compound (10 μL: prepared at 20× the desired final concentration) was added to each well and the plate was incubated for 1 h at 37° C. A solution (10 μL) of LPS in RPMI/1% FCS (200 ng/mL) was added and the wells were incubated overnight at 37° C. The supernate (100 μL) was removed from each well and diluted with RPMI/1% FCS (400 μL). The samples were analyzed for TNF-α using a commercial ELISA kit (Genzyme).

Experiment [2] has as its system TNF-α. Nature of the experiment: In vivo rodent assay for inhibition of LPS-induced TNF-α production. Particulars: 10 mg/kg oral; for inhibition in vivo at 10 mg/kg: Mus musculus, po. The arrangement: species or system Mice (BALB/cJ females). The method, then: Mice (BALB/cJ females, Jackson Laboratories) or rats (Lewis males, Charles River) were fasted for 30 min. The animals were dosed orally on a mg/kg basis at a range of times prior to being injected intraperitoneally with LPS at 1 mg/kg and returned to their cages for 1 h. Animals were anesthetized by CO2, exsanguinated by cardiac puncture and whole blood collected (0.1-0.7 mL). The blood was allowed to clot and serum was transferred to a centrifuge tube. This sample was centrifuged, and serum was collected, aliquoted and frozen at −80° C. Samples were tested by commercial ELISA's for TNF-α (Endogen for mouse TNF-α and Biosource for rat TNF-α).

Where [3] appears, read: 2 h, 2 h, read-out: Mouse 10 mg/kg % inhib 2 h.
Where [4] appears, read: 0.5 h, 0.5 h, read-out: Mouse 10 mg/kg % inhib 0.5 h.

Each structure is given as a SMILES string. Like-named read-outs stand apart in the source and are kept apart here.

One may read the IC50 as the midpoint of a concentration-inhibition curve. A lower IC50 goes with inhibition by little substance.

In experiment [1], `CCOC(=O)N1CCN(c2c(-c3ccncc3)c(-c3ccc(F)cc3)c(C(=O)OC)n2C)CC1` [Cpd 179] registered an IC50 of 30 nM. The inhibition in vivo at 10 mg/kg in experiment [2] (setting [3]) is 8%.
In experiment [1], `Cn1cc(-c2ccc(F)cc2)c(-c2ccncc2)c1CO` [Cpd 112] had an IC50 of 169 nM. Besides, the inhibition in vivo at 10 mg/kg in experiment [2] (setting [4]) stood at 65%.
`Cn1cc(-c2ccncc2)c(-c2ccc(F)cc2)c1C(=O)NCC(=O)c1ccccc1` [Cpd 34, 3-(4-Fluorophenyl)-1-methyl-N-(2-oxo-2-phenylethyl)-4-(4-pyridinyl)-1H-pyrrole-2-carboxamide]: inhibition in experiment [1] was half-maximal at 157 nM (IC50). Moreover, the results for the inhibition in vivo at 10 mg/kg in experiment [2] (setting [4]) and in experiment [2] (setting [3]) were 81% and 37%, respectively.
In turn, `COC(=O)c1c(-c2ccc(F)cc2)c(-c2ccncc2)c(N2CCC(N)C2)n1C` (centres unmarked) [Cpd 113] yielded an IC50 in experiment [1] of 237 nM. For the same compound, in experiment [2] (setting [4]), the inhibition in vivo at 10 mg/kg is 25%.
The compound `Cn1cc(-c2ccncc2)c(-c2ccc(F)cc2)c1C#N` [Cpd 168] displayed an IC50 in experiment [1] of 171 nM. The “Mouse 10 mg/kg % inhib 2 h” value in experiment [2] (2 h, 10 mg/kg) was −19%. Moreover, the inhibition in vivo at 10 mg/kg in experiment [2] (setting [4]) came out at 67%.
With `Cn1c(Br)c(-c2ccncc2)c(-c2ccc(F)cc2)c1C#N` [Cpd 170], the IC50 in experiment [1] stood at 625 nM. The inhibition in vivo at 10 mg/kg in experiment [2] (setting [4]) stood at 22%.
In experiment [1], `CCCc1c(-c2ccnc(SC)n2)c(-c2ccc(F)cc2)cn1CCCN(C)C` [Cpd 48] showed an IC50 of 148 nM. Further, the inhibition in vivo at 10 mg/kg in experiment [2] (setting [4]) is -37%.
`CCOC(=O)c1c(-c2ccc(F)cc2)c(-c2ccncc2)c(CCCOCc2ccccc2)n1C` [Cpd 155] had an IC50 in experiment [1] of 248 nM. Also, in experiment [2] (setting [4]), the inhibition in vivo at 10 mg/kg was 51%.
`COC(=O)c1c(-c2ccc(F)cc2)c(-c2ccncc2)c(Nc2ccccc2)n1C` [Cpd 119]: 57 nM corresponded to half-maximal inhibition in experiment [1] (IC50). The inhibition in vivo at 10 mg/kg in experiment [2] (setting [4]) was -10.5%.
Compound `COC(=O)c1c(-c2ccc(F)cc2)c(-c2ccncc2)cn1C(C)=O` [Cpd 121] showed an IC50 in experiment [1] of 194 nM. Also, the inhibition in vivo at 10 mg/kg in experiment [2] (setting [4]) is -32.1%.
Turning to `CN1CCN(c2c(-c3ccncc3)c(-c3ccc(F)cc3)c(C#N)n2C)CC1` [Cpd 183], the IC50 in experiment [1] was found to be 80 nM. Besides, in experiment [2] (setting [3]), the inhibition in vivo at 10 mg/kg is 47%.
`COC(=O)c1c(-c2ccc(F)cc2)c(-c2ccncc2)c(/N=C/N(C)C)n1C` [Cpd 15] had an IC50 in experiment [1] of 5 nM. Besides, the inhibition in vivo at 10 mg/kg in experiment [2] (setting [4]) is 6%; in experiment [2] (setting [3]) it was -21%.
In turn, `CC(=O)N1CCN(c2c(-c3ccncc3)c(-c3ccc(F)cc3)c(C#N)n2C)CC1` [Cpd 182] showed an IC50 in experiment [1] of 154 nM. In experiment [2] (setting [3]), the inhibition in vivo at 10 mg/kg amounted to 81%.
As for `CCNC(=O)c1[nH]cc(-c2ccc(F)cc2)c1-c1ccncc1` [Cpd 32, N-Ethyl-4-(4-fluorophenyl)-3-(4-pyridinyl)-1H-pyrrole-2-carboxamide], half-maximal inhibition in experiment [1] (IC50) was put at 209 nM. Also, the inhibition in vivo at 10 mg/kg in experiment [2] (setting [4]) is -24%.
Take `Cn1cc(-c2ccncc2)c(-c2ccc(F)cc2)c1CNC(=O)Nc1ccccc1` [Cpd 185]: the IC50 in experiment [1] is 27 nM. Also, the inhibition in vivo at 10 mg/kg in experiment [2] (setting [3]) was determined as 82%.
In experiment [1], `CCCC1=C(c2ccnc(N[C@@H](C)c3ccccc3)n2)C(c2ccc(F)cc2)=CC1CCN1CCOCC1` (some centres unmarked) [Cpd 55] yielded a concentration for half-maximal inhibition (IC50) of 4 nM. The inhibition in vivo at 10 mg/kg in experiment [2] (setting [4]) was -35%.
The like results for `COC(=O)C1Cn2cc(-c3ccncc3)c(-c3ccc(F)cc3)c2C1=O` (centres unmarked) [Cpd 21, 7-(4-Fluorophenyl)-2,3-dihydro-1-oxo-6-(4-pyridinyl)-1H-pyrrolizine-2-carboxylic acid methyl ester] were, in that order, 29 nM and 44.7%.
For the compound `Cn1c(N2CCCC2)c(-c2ccncc2)c(-c2ccc(F)cc2)c1C(C)(C)O` [Cpd 111], half-maximal inhibition in experiment [1] (IC50) was put at 192 nM. In addition, the inhibition in vivo at 10 mg/kg in experiment [2] (setting [4]) was 37.7%.
In turn, `Cn1cc(-c2ccncc2)c(-c2ccc(F)cc2)c1-c1ncc(-c2ccccc2)o1` [Cpd 36, 4-[4-(4-Fluorophenyl)-1-methyl-5-(5-phenyl-2-oxazolyl)-1H-pyrrol-3-yl]pyridine] had an IC50 in experiment [1] of 1030 nM. The inhibition in vivo at 10 mg/kg in experiment [2] (setting [4]) came to 81%; in experiment [2] (setting [3]), 35%.
In turn, `COC(=O)c1c(-c2ccncc2)c(-c2ccc(F)cc2)c(NCCc2ccccc2)n1C` [Cpd 152] had an IC50 in experiment [1] of 1020 nM. For the same compound, the inhibition in vivo at 10 mg/kg in experiment [2] (setting [4]) came out at 58%.
In the case of `OCc1[nH]cc(-c2ccc(F)cc2)c1-c1ccncc1` [Cpd 26, 4-(4-Fluorophenyl)-3-(4-pyridinyl)-1H-pyrrole-2-methanol], the IC50 in experiment [1] is 101 nM. For the same compound, in experiment [2] (setting [4]), the inhibition in vivo at 10 mg/kg was -72%.
Taken in the same sequence, the figures for `COC(=O)c1c(-c2ccc(F)cc2)c(-c2ccncc2)cn1C(=O)OC` [Cpd 139] were 23 nM and -22%.
`Cn1cc(-c2ccncc2)c(-c2ccc(F)cc2)c1-c1cnco1` [Cpd 41, 4-[4-(4-Fluorophenyl)-1-methyl-5-(5-oxazolyl)-1H-pyrrol-3-yl]pyridine] had an IC50 in experiment [1] of 59 nM. Also, the inhibition in vivo at 10 mg/kg in experiment [2] (setting [4]) turned out to be 53%.
The like results for `CCN1CCN(c2c(-c3ccncc3)c(-c3ccc(F)cc3)c(C(=O)OC)n2C)CC1` [Cpd 124] were, in that order, 135 nM and 67.8%.
Regarding `COC(=O)C1CCn2c(NCCN3CCOCC3)c(-c3ccncc3)c(-c3ccc(F)cc3)c2C1=O` (centres unmarked) [Cpd 23, 1-(4-Fluorophenyl)-5,6,7,8-tetrahydro-3-[[2-(4-morpholinyl)ethyl]amino]-8-oxo-2-(4-pyridinyl)-7-indolizinecarboxylic acid methyl ester], half-maximal inhibition in experiment [1] (IC50) was put at 77 nM. Besides, the inhibition in vivo at 10 mg/kg in experiment [2] (setting [4]) came out at 71%.
On to `COC(=O)c1c(-c2ccc(F)cc2)c(-c2ccncc2)c(NCc2cccc(OC)c2)n1C` [Cpd 177], for which, in experiment [1], half-maximal inhibition (IC50) required 407 nM. Also, the inhibition in vivo at 10 mg/kg in experiment [2] (setting [3]) was determined as 63%.
Taken in the same sequence, the figures for `COC(=O)c1c(-c2ccncc2)c(-c2ccc(F)cc2)c(C#CCCN2CCOCC2)n1C` [Cpd 175] were 32 nM and -4%.
In turn, `COC(=O)c1c(-c2ccc(F)cc2)c(-c2ccncc2)c(-c2cccc(NC(C)=O)c2)n1C` [Cpd 144] registered an IC50 in experiment [1] of 2 nM. In addition, the inhibition in vivo at 10 mg/kg in experiment [2] (setting [4]) came out at 59%.
`COC(=O)c1c(-c2ccc(F)cc2)c(-c2ccncc2)c(N2CCN(S(C)(=O)=O)CC2)n1C` [Cpd 12, 3-(4-Fluorophenyl)-1-methyl-5-[4-(methylsulfonyl)-1-piperazinyl]-4-(4-pyridinyl)-1H-pyrrole-2-carboxylic acid methyl ester] yielded an IC50 in experiment [1] of 5860 nM. The inhibition in vivo at 10 mg/kg in experiment [2] (setting [4]) was -29%.
Take `CCOC(=O)c1c(-c2ccc(F)cc2)c(-c2ccncc2)c(CCCN2CCOCC2)n1C` [Cpd 19, 3-(4-Fluorophenyl)-1-methyl-5-[3-(4-morpholinyl)propyl]-4-(4-pyridinyl)-1H-pyrrole-2-carboxylic acid ethyl ester]: the IC50 in experiment [1] was 756 nM. Moreover, the inhibition in vivo at 10 mg/kg in experiment [2] (setting [4]) stood at 34%.
For the compound `COC(=O)c1c(-c2ccc(F)cc2)c(-c2ccncc2)c(N2CCNCC2)n1C` [Cpd 8, 3-(4-Fluorophenyl)-1-methyl-5-(1-piperazinyl)-4-(4-pyridinyl)-1H-pyrrole-2-carboxylic acid methyl ester], the midpoint of inhibition in experiment [1], the IC50, lay at 33 nM. Also, the inhibition in vivo at 10 mg/kg in experiment [2] (setting [4]) is 73%.
The compound `CN(CCN1CCOCC1)c1c(-c2ccncc2)c(-c2ccc(F)cc2)cn1C` [Cpd 173] yielded an IC50 in experiment [1] of 117 nM. Further, the inhibition in vivo at 10 mg/kg in experiment [2] (setting [4]) is 65%; in experiment [2] (setting [3]), -17%.
In turn, `COC(=O)c1c(-c2ccc(F)cc2)c(-c2ccncc2)c(-c2ccc(N(C)C)cc2)n1C` [Cpd 122] yielded an IC50 in experiment [1] of 120 nM. In experiment [2] (setting [4]), the inhibition in vivo at 10 mg/kg is -22%.
`COC(=O)c1c(-c2ccc(F)cc2)c(-c2ccncc2)c(NCCN2CCCC2)n1CCN1CCOCC1` [Cpd 156]: in experiment [1], 969 nM corresponded to half-maximal inhibition (IC50). Also, the inhibition in vivo at 10 mg/kg in experiment [2] (setting [4]) is 23%.
Compound `CN(CCO)Cc1[nH]cc(-c2ccc(F)cc2)c1-c1ccncc1` [Cpd 180] yielded an IC50 in experiment [1] of 3 nM. For the same compound, the inhibition in vivo at 10 mg/kg in experiment [2] (setting [3]) was -8%.
In the case of `O=C1CCn2cc(-c3ccncc3)c(-c3ccc(F)cc3)c21` [Cpd 22, 7-(4-Fluorophenyl)-2,3-dihydro-6-(4-pyridinyl)-1H-pyrrolizin-1-one], half-maximal inhibition in experiment [1] (IC50) required 138 nM. Besides, the inhibition in vivo at 10 mg/kg is 63% in experiment [2] (setting [4]) and -3% in experiment [2] (setting [3]).
On to `COC(=O)c1c(-c2ccc(F)cc2)c(-c2ccncc2)c(NCCN2CCCCC2)n1C` [Cpd 115], for which the IC50 in experiment [1] is 92 nM. Also, the inhibition in vivo at 10 mg/kg in experiment [2] (setting [4]) is -36%.
